Measurements as given in patent US10988477B2 (Merck Patent GmbH, priority 2018, dated 2021).
Like-named read-outs stand apart in the source and are kept apart here.

Tests used:
[1] = target: intracellular GCN2 (phosphorylation of the GCN2 substrate eIF2α) (Homo sapiens, UniProt Q9P2K8); test: GCN2 cellular inhibition assay (AlphaScreen SureFire P-eIF2α Ser51, borrelidin-treated U2OS cells); type: cell-based
How it was run: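 Phospho-eIF2α (Ser51) in lysates was quantified by AlphaScreen SureFire after a 1 h, 37 °C treatment of U2OS cells with 10 μM borrelidin and compound at 4-fold dilutions starting from 40 μM final. Inhibition expressed in percent against wells stimulated by borrelidin alone.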

[2] = target: GCN2 kinase (Homo sapiens, UniProt Q9P2K8); test: GCN2 enzyme inhibition assay (Transcreener ADP2 fluorescence polarization); type: biochemical; conditions: 280 μM ATP; for IC50: compounds of Formula IV
Chain of GCN2 kinase (Q9P2K8 whole entry): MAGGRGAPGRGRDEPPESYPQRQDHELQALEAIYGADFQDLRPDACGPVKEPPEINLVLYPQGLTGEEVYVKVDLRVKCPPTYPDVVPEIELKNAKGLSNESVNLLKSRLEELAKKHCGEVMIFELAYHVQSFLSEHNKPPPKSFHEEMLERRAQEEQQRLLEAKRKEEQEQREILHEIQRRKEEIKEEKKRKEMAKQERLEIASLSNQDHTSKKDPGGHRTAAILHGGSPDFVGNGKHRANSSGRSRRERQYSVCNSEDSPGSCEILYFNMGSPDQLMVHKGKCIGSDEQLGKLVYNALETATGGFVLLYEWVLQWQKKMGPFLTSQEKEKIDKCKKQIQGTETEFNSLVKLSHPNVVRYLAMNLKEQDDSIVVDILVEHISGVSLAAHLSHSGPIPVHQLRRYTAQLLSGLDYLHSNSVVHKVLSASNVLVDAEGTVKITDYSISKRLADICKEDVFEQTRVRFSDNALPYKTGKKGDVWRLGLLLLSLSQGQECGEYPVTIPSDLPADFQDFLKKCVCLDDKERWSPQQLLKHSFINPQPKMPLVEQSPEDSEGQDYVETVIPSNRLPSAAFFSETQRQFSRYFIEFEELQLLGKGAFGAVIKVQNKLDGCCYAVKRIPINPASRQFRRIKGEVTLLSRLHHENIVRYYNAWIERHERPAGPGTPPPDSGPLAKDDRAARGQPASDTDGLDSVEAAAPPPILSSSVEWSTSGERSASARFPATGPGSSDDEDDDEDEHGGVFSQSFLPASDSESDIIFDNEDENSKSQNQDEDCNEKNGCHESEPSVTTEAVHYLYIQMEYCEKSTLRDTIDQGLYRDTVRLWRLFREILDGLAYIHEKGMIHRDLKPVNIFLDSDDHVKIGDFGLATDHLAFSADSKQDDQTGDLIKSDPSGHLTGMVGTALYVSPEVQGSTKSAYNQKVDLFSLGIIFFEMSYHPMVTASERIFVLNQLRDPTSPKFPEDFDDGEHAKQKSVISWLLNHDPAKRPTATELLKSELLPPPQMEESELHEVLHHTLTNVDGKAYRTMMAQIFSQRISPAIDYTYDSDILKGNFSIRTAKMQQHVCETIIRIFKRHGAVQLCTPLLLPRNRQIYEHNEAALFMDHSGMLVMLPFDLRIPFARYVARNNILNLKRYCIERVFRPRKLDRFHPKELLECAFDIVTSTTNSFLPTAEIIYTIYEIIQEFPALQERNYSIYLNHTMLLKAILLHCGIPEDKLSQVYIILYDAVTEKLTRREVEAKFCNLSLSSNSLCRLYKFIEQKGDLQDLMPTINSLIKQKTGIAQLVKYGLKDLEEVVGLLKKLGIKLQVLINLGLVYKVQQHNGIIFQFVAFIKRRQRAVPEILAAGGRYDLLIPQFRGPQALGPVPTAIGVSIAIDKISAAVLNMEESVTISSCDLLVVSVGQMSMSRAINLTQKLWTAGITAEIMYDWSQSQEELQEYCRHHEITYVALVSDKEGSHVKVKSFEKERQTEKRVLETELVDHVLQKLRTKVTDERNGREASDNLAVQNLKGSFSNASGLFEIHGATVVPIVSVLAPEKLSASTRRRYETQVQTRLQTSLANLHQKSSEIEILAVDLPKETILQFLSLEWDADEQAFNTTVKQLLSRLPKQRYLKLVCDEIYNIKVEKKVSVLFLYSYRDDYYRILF
How it was run: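 Inhibition of 4 nM GCN2 was measured with compound up to 8 μM final, ATP 280 μM and (RS)7 peptide 200 μM over a 1 h, 25 °C reaction. ADP FP readout; IC50 and Ki(app) calculated from percent inhibition.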

[3] = compounds of Formula II, biomarker assay, phosphorylated eIF2α Ser51 in borrelidin-treated U2OS cells
[4] = compounds of Formula II, 4 nM GCN2 kinase
[5] = compounds of Formula V, U2OS cells, 10 μM borrelidin, 1 h, read-out: GCN2 Biomarker (IC50)
[6] = compounds of Formula V, 4 nM GCN2 kinase
[7] = compounds of Formula IV, biomarker assay, phosphorylated eIF2α Ser51 in borrelidin-treated U2OS cells
[8] = Enzyme activity for compounds of Formula IV, Ki(app), 25° C.

Chain of intracellular GCN2 (phosphorylation of the GCN2 substrate eIF2α) (Q9P2K8 whole entry): as above

SMILES: C[C@H]1[C@@H](CNS(C)(=O)=O)CC(F)(F)CN1c1cc(-c2cnc3ccc(C(F)F)nn23)ncn1 (single isomer, unassigned) [II-361]
- IC50 [1, 3]: < 500 nM
- Ki [2, 4]: < 10 nM

SMILES: CC1CN(c2ccnc(-c3cnc4sc(C(F)(F)F)cn34)n2)C(C)C(c2cn[nH]c2)N1 (single isomer, unassigned) [Compound V-12, 5-[4-[2,5-Dimethyl-3-(1H-pyrazol-4-yl)piperazin-1-yl]pyrimidin-2-yl]-2-(trifluoromethyl)imidazo[2,1-b]thiazole]
- IC50 [1, 5]: 500 to 5000 nM
- Ki [2, 6]: 100 to 1000 nM

SMILES: NS(=O)(=O)N1CCCN(c2cc(-c3cnc4ccc(C(F)F)nn34)ncn2)CC1 [II-24, 4-(6-(6-(Difluoromethyl)imidazo[1,2-b]pyridazin-3-yl)pyrimidin-4-yl)-1,4-diazepane-1-sulfonamide]
- IC50 [1, 3]: > 5000 nM
- Ki [2, 4]: 10 to 1000 nM

SMILES: CC1CN(c2ccnc(-c3cnc4cnc(Br)cn34)n2)C(C)C(c2cn[nH]c2)N1 (stereo not drawn) [IV-279, 6-Bromo-3-(4-(2,5-dimethyl-3-(1H-pyrazol-4-yl)piperazin-1-yl)pyrimidin-2-yl)imidazo[1,2-a]pyrazine]
- IC50 [1, 7]: < 500 nM
- Ki [2, 8]: < 10 nM

SMILES: CS(=N)(=O)C1CCCN(c2cc(-c3cnc4ccc(C(F)F)nn34)ncn2)C1 (stereo not drawn) [II-522, (1-(6-(6-(Difluoromethyl)imidazo[1,2-b]pyridazin-3-yl)pyrimidin-4-yl)piperidin-3-yl)(imino)(methyl)-λ^6-sulfanone]
- IC50 [1, 3]: 500 to 5000 nM
- Ki [2, 4]: 10 to 1000 nM

SMILES: C[C@@H]1C[C@H](c2c[nH]nc2F)CN(c2nccc(-c3cnc4cnc(C(F)(F)F)cn34)n2)C1 [IV-757, 3-(2-((3R,5R)-3-(3-fluoro-1H-pyrazol-4-yl)-5-methylpiperidin-1-yl)pyrimidin-4-yl)-6-(trifluoromethyl)imidazo[1,2-a]pyrazine]
- IC50 [1, 7]: < 500 nM
- IC50 ([2]; 4 nM GCN2 kinase): 10 to 1000 nM

SMILES: OCc1cccc(-c2ccnc(-c3cnc4cnc(C(F)F)cn34)n2)c1 [IV-162, (3-(2-(6-(Difluoromethyl)imidazo[1,2-a]pyrazin-3-yl)pyrimidin-4-yl)phenyl)methanol]
- IC50 [1, 7]: > 5000 nM
- Ki [2, 8]: 100 to 1000 nM

SMILES: CC1(C)CN(c2ccnc(-c3cnc4cnc(Br)cn34)n2)CC(c2cn[nH]c2)N1 (stereo not drawn) [IV-354, 6-Bromo-3-(4-(3,3-dimethyl-5-(1H-pyrazol-4-yl)piperazin-1-yl)pyrimidin-2-yl)imidazo[1,2-a]pyrazine]
- IC50 [1, 7]: > 5000 nM
- Ki [2, 8]: 10 to 100 nM

SMILES: N#Cc1cccc(C(=O)N[C@H]2CCCN(c3ccnc(-c4cnc5cnc(C(F)(F)F)cn45)n3)C2)c1 [IV-741]
- IC50 [1, 7]: > 5000 nM
- Ki [2, 8]: > 1000 nM

SMILES: CS(=O)(=O)NC(=O)C1CCCN(c2cc(-c3cnc4ccc(C(F)F)nn34)ncn2)C1 (stereo not drawn) [II-460, 1-(6-(6-(Difluoromethyl)imidazo[1,2-b]pyridazin-3-yl)pyrimidin-4-yl)-N-(methylsulfonyl)piperidine-3-carboxamide]
- IC50 [1, 3]: > 5000 nM
- Ki [2, 4]: 10 to 1000 nM

SMILES: CS(=N)(=O)CC1CCCN(c2ccnc(-c3cnc4sc(C(F)(F)F)cn34)n2)C1 (racemic) [Compound V-18, Imino(methyl)((1-(2-(2-(trifluoromethyl)imidazo[2,1-b]thiazol-5-yl)pyrimidin-4-yl)piperidin-3-yl)methyl)-λ^6-sulfanone]
- IC50 [1, 5]: > 5000 nM
- Ki [2, 6]: 100 to 1000 nM

SMILES: O=C1NCC2CN(c3cc(-c4cnc5ccc(C(F)F)nn45)ncn3)CCN12 (stereo not drawn) [II-46, 7-(6-(6-(Difluoromethyl)imidazo[1,2-b]pyridazin-3-yl)pyrimidin-4-yl)hexahydroimidazo[1,5-a]pyrazin-3(2H)-one]
- IC50 [1, 3]: > 5000 nM
- Ki [2, 4]: 10 to 1000 nM

SMILES: CC(=O)N1CCN(c2ccnc(-c3cnc4cnc(C(=O)O)cn34)n2)CC1 [IV-30, 3-(4-(4-Acetylpiperazin-1-yl)pyrimidin-2-yl)imidazo[1,2-a]pyrazine-6-carboxylic acid]
- IC50 [1, 7]: > 5000 nM
- Ki [2, 8]: 100 to 1000 nM

SMILES: CS(=O)(=O)NC[C@@H]1CN(c2ccnc(-c3cnc4cnc(C(F)F)cn34)n2)CCO1 [IV-23, (S)—N-((4-(2-(6-(Difluoromethyl)imidazo[1,2-a]pyrazin-3-yl)pyrimidin-4-yl)morpholin-2-yl)methyl)methanesulfonamide]
- IC50 [1, 7]: > 5000 nM
- Ki [2, 8]: 100 to 1000 nM

SMILES: CNc1ccc2ncc(-c3ccnc(N4CCCC(CNS(C)(=O)=O)C4)c3)n2n1 (stereo not drawn) [II-179, N-((1-(4-(6-(Methylamino)imidazo[1,2-b]pyridazin-3-yl)pyridin-2-yl)piperidin-3-yl)methyl)methanesulfonamide]
- IC50 [1, 3]: 500 to 5000 nM
- Ki [2, 4]: 10 to 1000 nM

SMILES: C[C@H]1[C@@H](N=S(C)(C)=O)CCCN1c1cc(-c2cnc3ccc(C(F)F)nn23)ncn1 (single isomer, unassigned) [II-593]
- IC50 [1, 3]: < 500 nM
- Ki [2, 4]: < 10 nM

SMILES: Cc1n[nH]cc1[C@H]1C[C@H](O)CN(c2ccnc(-c3cnc4cnc(C(F)(F)F)cn34)n2)C1 [IV-774, (3S,5R)-5-(3-methyl-1H-pyrazol-4-yl)-1-(2-(6-(trifluoromethyl)imidazo[1,2-a]pyrazin-3-yl)pyrimidin-4-yl)piperidin-3-ol]
- IC50 [1, 7]: > 5000 nM
- IC50 ([2]; 4 nM GCN2 kinase): 10 to 1000 nM

SMILES: NCc1cccc(-c2ccnc(-c3cnc4cnc(C(F)F)cn34)n2)c1 [IV-159, (3-(2-(6-(Difluoromethyl)imidazo[1,2-a]pyrazin-3-yl)pyrimidin-4-yl)phenyl)methanamine]
- IC50 [1, 7]: > 5000 nM
- Ki [2, 8]: 100 to 1000 nM

SMILES: CC1CC(P(C)(C)=O)CN(c2cc(-c3cnc4ccc(C(F)F)nn34)ncn2)C1 (stereo not drawn) [II-711, 6-(Difluoromethyl)-3-[6-(3-dimethylphosphoryl-5-methyl-1-piperidyl)pyrimidin-4-yl]imidazo[1,2-b]pyridazine]
- IC50 [1, 3]: 500 to 5000 nM
- Ki [2, 4]: 10 to 1000 nM

SMILES: CC1CN(c2ccnc(-c3cnc4cnc(C(F)(F)F)cn34)n2)CC(c2cn[nH]c2)N1 (single isomer, unassigned) [IV-461, 3-(4-(3-Methyl-5-(1H-pyrazol-4-yl)piperazin-1-yl)pyrimidin-2-yl)-6-(trifluoromethyl)imidazo[1,2-a]pyrazine]
- IC50 [1, 7]: 500 to 5000 nM
- Ki [2, 8]: 10 to 100 nM

SMILES: CC(NS(C)(=O)=O)C1CCCN(c2cc(-c3cnc4ccc(C(F)F)nn34)ccn2)C1 (stereo not drawn) [II-134, N-(1-(1-(4-(6-(Difluoromethyl)imidazo[1,2-b]pyridazin-3-yl)pyridin-2-yl)piperidin-3-yl)ethyl)methanesulfonamide]
- IC50 [1, 3]: 500 to 5000 nM
- Ki [2, 4]: 10 to 1000 nM

SMILES: CC1CN(c2cc(-c3cnc4ccc(C(F)F)nn34)ccn2)CC(CNS(C)(=O)=O)O1 (stereo not drawn) [II-119, N-((4-(4-(6-(Difluoromethyl)imidazo[1,2-b]pyridazin-3-yl)pyridin-2-yl)-6-methylmorpholin-2-yl)methyl)methanesulfonamide]
- IC50 [1, 3]: < 500 nM
- Ki [2, 4]: < 10 nM

SMILES: FC(F)(F)c1ccc2ncc(-c3ccnc(N4CCOC(c5cn[nH]c5)C4)c3)n2n1 (single isomer, unassigned) [II-230, 2-(1H-Pyrazol-4-yl)-4-(4-(6-(trifluoromethyl)imidazo[1,2-b]pyridazin-3-yl)pyridin-2-yl)morpholine]
- IC50 [1, 3]: < 500 nM
- Ki [2, 4]: < 10 nM

SMILES: CS(=O)(=O)NCC1CCCN(c2cc(-c3cnc4ccc(C(F)F)nn34)cc(N3CCOCC3)n2)C1 (stereo not drawn) [II-66, N-((1-(4-(6-(Difluoromethyl)imidazo[1,2-b]pyridazin-3-yl)-6-morpholinopyridin-2-yl)piperidin-3-yl)methyl)methanesulfonamide]
- IC50 [1, 3]: 500 to 5000 nM
- Ki [2, 4]: < 10 nM

SMILES: CS(=O)(=O)NCC1CCCN(c2cc(-c3cnc4ccc(C(F)F)nn34)cc(N3CC4(CNC4)C3)n2)C1 (stereo not drawn) [II-92, N-[[1-[6-(2,6-Diazaspiro[3.3]heptan-2-yl)-4-[6-(difluoromethyl)imidazo[1,2-b]pyridazin-3-yl]-2-pyridyl]-3-piperidyl]methyl]methanesulfonamide]
- IC50 [1, 3]: 500 to 5000 nM
- Ki [2, 4]: < 10 nM

SMILES: CC1CC(N=S(C)(C)=O)CN(c2cc(-c3cnc4ccc(C(F)F)nn34)ncn2)C1 (single isomer, unassigned) [II-540, ((1-(6-(6-(Difluoromethyl)imidazo[1,2-b]pyridazin-3-yl)pyrimidin-4-yl)-5-methylpiperidin-3-yl)imino)dimethyl-λ^6-sulfanone]
- IC50 [1, 3]: 500 to 5000 nM
- Ki [2, 4]: 10 to 1000 nM

SMILES: C[C@H]1[C@@H](c2cn[nH]c2)N(C)CCN1c1ccnc(-c2cnc3cnc(Br)cn23)n1 (relative stereo) [IV-392, Cis-6-Bromo-3-(4-(2,4-dimethyl-3-(1H-pyrazol-4-yl)piperazin-1-yl)pyrimidin-2-yl)imidazo[1,2-a]pyrazine]
- IC50 [1, 7]: < 500 nM
- Ki [2, 8]: < 10 nM

SMILES: NC(=O)C1CN(c2ccnc(-c3cnc4cnc(C(F)F)cn34)n2)CCO1 (stereo not drawn) [IV-48, 4-(2-(6-(Difluoromethyl)imidazo[1,2-a]pyrazin-3-yl)pyrimidin-4-yl)morpholine-2-carboxamide]
- IC50 [1, 7]: > 5000 nM
- Ki [2, 8]: 100 to 1000 nM

SMILES: FC(F)(F)c1cn2c(-c3nccc(N4CC(c5cn[nH]c5)NC(C(F)(F)F)C4)n3)cnc2cn1 (stereo not drawn) [IV-558, 3-(4-(3-(1H-Pyrazol-4-yl)-5-(trifluoromethyl)piperazin-1-yl)pyrimidin-2-yl)-6-(trifluoromethyl)imidazo[1,2-a]pyrazine]
- IC50 [1, 7]: > 5000 nM
- Ki [2, 8]: 10 to 100 nM

SMILES: O=C1OC[C@@H]2CN(c3cc(-c4cnc5ccc(C(F)F)nn45)ncn3)CCN12 [II-47, (S)-7-(6-(6-(Difluoromethyl)imidazo[1,2-b]pyridazin-3-yl)pyrimidin-4-yl)hexahydro-3H-oxazolo[3,4-a]pyrazin-3-one]
- IC50 [1, 3]: 500 to 5000 nM
- Ki [2, 4]: 10 to 1000 nM
